Data as given in patent publication US5116822A, “Therapeutic application of dideoxycytidinene” (priority 1990, dated 1992).

Key:
[1] = system: HIV-infected ATH8 cells / human lymphoid cell lines; conditions: compared with corresponding saturated derivatives; cited from earlier work
[2] = system: MT-4 cells; test: Cytostatic effect (inhibition of cell proliferation); assay type: cell-based; conditions: Homo sapiens, MT4, read-out: IC50 (50%-inhibitory concentration, cell proliferation)
Description: (§1) The compounds ddeCyd and ddCyd were evaluated for their cytostatic effect against a series of murin and human cell lines. This was based upon measuring the inhibition of cell proliferation according to the procedures described by De Clercq et al. in Mol.Pharmacol. 19, 321-330 (1981).
(§2) The following cell lines were used: murine leukemia L1210 cells, designated L1210/0; murine mammary carcinoma FM3A cells; human B-lymphoblast Raji cells; human T-lymphoblast Molt/4F cells; human T4 -lymphocyte ATH8 cells and human T4 -lymphocyte MT-4 cells.

[3] = system: Molt/4F cells; test: as above; assay type: cell-based; conditions: Homo sapiens, read-out: IC50 (50%-inhibitory concentration, cell proliferation)
Description: as §1, §2

[4] = system: Raji cells; test: as above; assay type: cell-based; conditions: Homo sapiens, read-out: IC50 (50%-inhibitory concentration, cell proliferation)
Description: as §1, §2

[5] = system: ATH8 cells; test: as above; assay type: cell-based; conditions: Homo sapiens, ATH-8, read-out: IC50 (50%-inhibitory concentration, cell proliferation)
Description: as §1, §2

[6] = system: HIV; test: microbe, parasite or virus in culture; assay type: cell-based; conditions: for EC50: Human immunodeficiency virus 1, ATH-8, read-out: EID50 for inhibition of HIV cytopathogenicity
[7] = system: vesicular stomatitis virus; test: microbe, parasite or virus in culture; assay type: cell-based; conditions: read-out: 50% effective inhibitory dose (EID50)
[8] = system: herpes simplex virus type 1; test: Antiviral activity against other viruses; assay type: cell-based; conditions: Human alphaherpesvirus 1, HeLa, Vero or PRK cell cultures, read-out: 50% effective inhibitory dose (EID50)
[9] = system: parainfluenza virus type 3; test: Antiviral activity against other viruses; assay type: cell-based; conditions: Human respirovirus 3, HeLa, Vero or PRK cell cultures, read-out: 50% effective inhibitory dose (EID50)
[10] = system: vaccinia virus; test: microbe, parasite or virus in culture; assay type: cell-based; conditions: Orthopoxvirus vaccinia, read-out: 50% effective inhibitory dose (EID50)
[11] = system: HIV; test: microbe, parasite or virus in culture; assay type: cell-based
[12] = system: Sindbis virus; test: Antiviral activity against other viruses; assay type: cell-based; conditions: HeLa, Vero or PRK cell cultures, read-out: 50% effective inhibitory dose (EID50)
[13] = system: DNA viruses and RNA viruses; test: Antiviral activity against other viruses, overall statement; assay type: cell-based; conditions: in words
[14] = system: HIV; test: Protection against HIV replication in MT-4 cells; assay type: cell-based; conditions: for inhibition at 0.1 µM: Human immunodeficiency virus 1, MT4, 0.1 μM
[15] = system: Coxsackie B4 virus; test: Antiviral activity against other viruses; assay type: cell-based; conditions: Enterovirus B, HeLa, Vero or PRK cell cultures, read-out: 50% effective inhibitory dose (EID50)
[16] = system: polio virus type 1; test: organism not typed; assay type: cell-based; conditions: read-out: 50% effective inhibitory dose (EID50)
[17] = system: reovirus type 1; test: Antiviral activity against other viruses; assay type: cell-based; conditions: Mammalian orthoreovirus 1, HeLa, Vero or PRK cell cultures, read-out: 50% effective inhibitory dose (EID50)
[18] = system: herpes simplex virus type 2; test: Antiviral activity against other viruses; assay type: cell-based; conditions: Human alphaherpesvirus 2, HeLa, Vero or PRK cell cultures, read-out: 50% effective inhibitory dose (EID50)
[19] = system: HIV; test: microbe, parasite or virus in culture; assay type: cell-based; conditions: Human immunodeficiency virus 1, MT4, read-out: % Inhibition of viral antigen expression
[20] = system: FM3A cells; test: Cytostatic effect (inhibition of cell proliferation); assay type: cell-based, murine; conditions: Mus musculus, read-out: IC50 (50%-inhibitory concentration, cell proliferation)
Description: as §1, §2

[21] = system: L1210/0 cells; test: as above; assay type: cell-based, murine; conditions: Mus musculus, read-out: IC50 (50%-inhibitory concentration, cell proliferation)
Description: as §1, §2

[22] = system: HIV; conditions: cited from earlier work

| Compound | protection of HIV-infected ATH8 cells and/or cytostatic activity against human lymphoid cell lines [1] | IC50 [2] [µM] | IC50 [3] [µM] | IC50 [4] [µM] | IC50 [5] [µM] | EC50 [6] [µM] | EC50 [7] [µM] | EC50 [8] [µM] | EC50 [9] [µM] | EC50 [10] [µM] | antiviral potency upon prolonged exposure [11] | EC50 [12] [µM] | antiviral effect against other (non-oncogenic RNA and DNA) viruses [13] | inhibition at 0.1 µM [14] [%] | EC50 [15] [µM] | EC50 [16] [µM] | EC50 [17] [µM] | EC50 [18] [µM] | inhibition at 0.1 µM [19] [%] | inhibition at 0.5 µM [19] [%] | also measured |
| --- | --- | --- | --- | --- | --- | --- | --- | --- | --- | --- | --- | --- | --- | --- | --- | --- | --- | --- | --- | --- | --- |
| Nc1ncnc2c1ncn2[C@H]1C=C[C@@H](CO)O1 [2',3'-unsaturated 2',3'-dideoxyadenosine] | significantly less protective against HIV-infected ATH8 cells and/or considerably more cytostatic against human lymphoid cell lines |  |  |  |  |  |  |  |  |  |  |  |  |  |  |  |  |  |  |  |  |
| Cc1cn([C@H]2C=C[C@@H](CO)O2)c(=O)[nH]c1=O [2',3'-unsaturated 2',3'-dideoxythymidine] | significantly less protective against HIV-infected ATH8 cells and/or considerably more cytostatic against human lymphoid cell lines |  |  |  |  |  |  |  |  |  |  |  |  |  |  |  |  |  |  |  |  |
| Nc1ccn([C@H]2C=C[C@@H](CO)O2)c(=O)n1 [ddeCyd, 2',3'-didehydro-2'-3'-dideoxycytidine] |  | 15 | 20 | 13 | 30 | 0.1 to 0.3 | > 100 | > 100 | > 100 | > 100 | decrease in antiviral potency | > 100 | neither ddeCyd nor ddCyd demonstrated any significant antiviral effect | 28 | > 100 | > 100 | > 100 | > 100 | 20 | 85 | effectiveness in inhibiting cytopathogenicity and antigen expression of HIV ([6]; ATH 8 and MT-4 cells, compared with 2',3'-dideoxycytidine): almost as effective as 2',3'-dideoxycytidine; fold by which HIV-inhibiting concentrations are below any toxicity for the host cells ([6]; T-cells): at least 100 fold; inhibition of human immunodeficiency virus in cell cultures ([6]; in words): potent and selective inhibitor of human immunodeficiency virus in cell cultures; protection of cells against destruction by the virus [11]: almost complete protection; protective effect at a longer time interval ([11]; 10 days (vs 7 days), ATH8 cells): somewhat lower; inhibition at 0.1 µM ([11]; Human immunodeficiency virus 1, ATH-8, 168 h, read-out: protection of cells against destruction by the virus): ~40%; EC (optimum protection) ([11]; Human immunodeficiency virus 1, ATH-8, 240 h, 10 days, ATH8 cells, read-out: concentration for optimum protection): ~2 µM; antiviral effect against other (non-oncogenic RNA and DNA) viruses ([13]; listed as 2',3'-dideoxycytidinene): not show any inhibitory effect; inhibition at 0.5 µM ([14]; Human immunodeficiency virus 1, MT4, 0.5 μM): 91%; inhibition at 0.02 µM ([19]; 0.02 μM): 8%; inhibition at 2 µM [19]: 98%; inhibition at 5 µM [19]: 98%; inhibition at 20 µM [19]: 96%; IC50 [20]: 1160 µM; IC50 [21]: 196 µM |
| Cc1cn([C@H]2C[C@H](N=[N+]=[N-])[C@@H](CO)O2)c(=O)[nH]c1=O [azidothymidine, 3'-azido-2',2'-dideoxythymidine] |  |  |  |  |  |  |  |  |  |  |  |  |  |  |  |  |  |  |  |  | inhibition of HIV replication ([22]; lymphocyte cultures): potent inhibitor of HIV replication |
| Nc1ccn([C@H]2CC[C@@H](CO)O2)c(=O)n1 [ddCyd, 2',3'-dideoxycytidine, reference compound] |  | 35 | 17 | 12 | 35 | 0.1 to 0.3 | > 100 | > 100 | > 100 | > 100 | without decrease upon prolonged exposure | > 100 | neither ddeCyd nor ddCyd demonstrated any significant antiviral effect | 75 | > 100 | > 100 | > 100 | > 100 | 70 | 96 | protection of ATH8 cells ([11]; 0.5 μM, ATH8 cells, no decrease upon prolonged exposure): completely protected; inhibition at 0.1 µM ([11]; Human immunodeficiency virus 1, ATH-8, 0.1 μM, ATH8 cells, no decrease upon prolonged exposure, read-out: protection against HIV replication in ATH8 cells): 75%; protection of MT-4 cells ([14]; 0.5 μM, in words): completely protected; concentration effecting complete antiviral protection ([22]; in vitro): 0.5 to 1.0 µM; inhibition at 2 µM [19]: 97%; inhibition at 5 µM [19]: 97%; inhibition at 20 µM [19]: 96%; IC50 [20]: > 2370 µM; IC50 [21]: 320 µM |
